This note sets out measurements from US6866861B1, “Method and composition for enhancing milk component concentrations” (Land O'Lakes, Inc., priority 1999, dated 2005).

The test system of this assay is cows. Description: Abomasal infusion of xylitol in cows, milk component concentrations (Example 1). Format: in vivo, cow. As for the experimental part: To determine the weight percent total solids, wet basis, in a sample, the actual weight of total solids is determined by analyzing the sample in accordance with Method #925.23 (33.2.09) of Official Methods of Analysis, Association of Official Analytical Chemists (AOAC) (16th Ed., 1995). The weight percent total solids, wet basis, is then calculated by dividing the actual weight of total solids by the actual weight of the sample. The weight percent of true protein, wet basis, for a particular sample is calculated after first determining the wet basis weight percent of total Kjeldahl nitrogen and the wet basis weight percent of non-protein nitrogen in the sample. The wet basis weight percent of total Kjeldahl nitrogen in the sample is determined using the method referenced above. The wet basis weight percent of non-protein nitrogen (NPN) in the sample is determined in accordance with Method #991.21 (33.2.12) of Official Methods of Analysis, Association of Official Analytical Chemists (AOAC) (16th Ed., 1995). The weight percent of true protein, wet basis, in the sample is then determined by subtracting the wet basis weight percent of non-protein nitrogen in the sample from the wet basis weight percent of total Kjeldahl nitrogen in the sample. To determine the weight percent lactose, wet basis, in a liquid sample, the weight of the liquid sample is first determined. The actual weight of lactose in the liquid sample may then be determined using analysis kit number 176-303, that is available from Boehringer-Mannheim of Indianapolis, Ind. in accordance with the procedural instructions included with analysis kit number 176-303. The weight percent lactose, wet basis, in the liquid sample is then calculated by dividing the actual weight of lactose in the liquid sample by the actual weight of the liquid sample. To determine the weight percent fat, wet basis, in a sample, the actual weight of fat in the sample is determined in accordance with Method #974.09 (33.7.18) of Official Methods of Analysis, Association of Official Analytical Chemists (AOAC) (16th Ed., 1995). The weight percent fat, wet basis, is then calculated by dividing the actual weight of fat in the sample by the actual weight of the sample. In this example, xylitol was abomasally infused into three different cows at a rate of 100 grams per cow per day during a 14 day test period. The rations provided to the cows during the period extending from day 0, prior to abomasal infusion of xylitol, through day 14 of the test period were the same. The only difference in feeding of the cows between day 0 and days 1-14 of the test period were that during days 1-14 the cows were abomasally infused with the dosage of 100 grams of xylitol per cow per day. The xylitol rations were mixed with water in the ratio of 150 grams of water per 100 grams of xylitol to facilitate infusion. Milk from the three cows was collected and analyzed prior to infusion (on day 0) and also was collected and analyzed on the third, seventh and fourteenth day of the test period. The results presented in Table 1 below for each milk component are averages for the milk collected from the three different cows on day 0 and a mean of the day 3, 7, and 14 concentration values, averaged over all of the test cows, for each particular milk component.

[1] abbreviates: milk, mean of days 3, 7, 14 minus day 0, 100 g/cow/day abomasal.
The mark [2] stands for this setting: milk, mean of days 3, 7 and 14, 100 g/cow/day abomasal infusion, average of 3 cows.

Each structure is given as a SMILES string.

`OC[C@@H](O)[C@H](O)[C@@H](O)CO` [xylitol]: the “weight percent of fat, true protein, lactose, and total solids in the milk (conclusion in words)” value (abomasal infusion, 14 day test period) is listed as “net increase”. For the same compound, under setting [1], the “Fat, Difference (mean − day 0)” value is given as “+0.31 Wt %”; the “Lactose, Difference (mean − day 0)” value was “+0.01 Wt. %”; the “Total Solids, Difference (mean − day 0)” value is recorded as “+0.39 Wt. %”; the “True Protein, Difference (mean − day 0)” value is given as “+0.10 Wt. %”. Moreover, under setting [2], the Fat worked out at 3.63 Wt %, the Lactose is recorded as 4.66 Wt. %, the “Total Solids” value is reported as 11.82 Wt. % and the “True Protein” value was determined as 2.86 Wt. %.
